Where “and” joins values, the source holds several entries; their conditions need not be identical. Identical values can stand only once. ± gives the expanded uncertainty stated by the source.
Experiment: molar heat capacity at constant pressure
Settings: 101.33 kPa, Crystal 1, Vacuum adiabatic calorimetry

[Al+3].[Al+3].[Co+2].[O-2].[O-2].[O-2].[O-2] [aluminium cobalt oxide]
molar heat capacity at constant pressure (47.17 K): 7.42 ± 0.15 J/K/mol
molar heat capacity at constant pressure (47.58 K): 7.59 ± 0.16 J/K/mol
molar heat capacity at constant pressure (48.91 K): 7.98 ± 0.16 J/K/mol
molar heat capacity at constant pressure (50 K): 8.31 ± 0.17 J/K/mol
molar heat capacity at constant pressure (50.03 K): 8.32 ± 0.05 J/K/mol
molar heat capacity at constant pressure (50.67 K): 8.52 ± 0.05 J/K/mol
molar heat capacity at constant pressure (52.44 K): 9.07 ± 0.06 J/K/mol
molar heat capacity at constant pressure (52.51 K): 9.11 ± 0.06 J/K/mol
molar heat capacity at constant pressure (54.22 K): 9.63 ± 0.06 J/K/mol
molar heat capacity at constant pressure (55 K): 9.96 ± 0.06 J/K/mol
molar heat capacity at constant pressure (55.03 K): 9.97 ± 0.06 J/K/mol
molar heat capacity at constant pressure (56.02 K): 10.33 ± 0.06 J/K/mol
molar heat capacity at constant pressure (57.57 K): 10.87 ± 0.06 J/K/mol
molar heat capacity at constant pressure (57.82 K): 10.96 ± 0.06 J/K/mol
molar heat capacity at constant pressure (59.64 K): 11.67 ± 0.07 J/K/mol
molar heat capacity at constant pressure (60 K): 11.79 ± 0.07 J/K/mol
molar heat capacity at constant pressure (60.15 K): 11.85 ± 0.07 J/K/mol
molar heat capacity at constant pressure (61.46 K): 12.35 ± 0.07 J/K/mol
molar heat capacity at constant pressure (62.75 K): 12.88 ± 0.07 J/K/mol
molar heat capacity at constant pressure (63.3 K): 13.11 ± 0.07 J/K/mol
molar heat capacity at constant pressure (65 K): 13.79 ± 0.07 J/K/mol
molar heat capacity at constant pressure (65.14 K): 13.85 ± 0.07 J/K/mol
molar heat capacity at constant pressure (65.38 K): 13.94 ± 0.07 J/K/mol
molar heat capacity at constant pressure (66.99 K): 14.6 ± 0.08 J/K/mol
molar heat capacity at constant pressure (68.03 K): 15.06 ± 0.08 J/K/mol
molar heat capacity at constant pressure (68.85 K): 15.41 ± 0.08 J/K/mol
molar heat capacity at constant pressure (70 K): 15.92 ± 0.08 J/K/mol
molar heat capacity at constant pressure (70.7 K): 16.23 ± 0.08 J/K/mol
molar heat capacity at constant pressure (70.71 K): 16.22 ± 0.08 J/K/mol
molar heat capacity at constant pressure (72.59 K): 17.07 ± 0.09 J/K/mol
molar heat capacity at constant pressure (73.39 K): 17.44 ± 0.09 J/K/mol
molar heat capacity at constant pressure (74.46 K): 17.93 ± 0.09 J/K/mol
molar heat capacity at constant pressure (75 K): 18.18 ± 0.09 J/K/mol
molar heat capacity at constant pressure (76.1 K): 18.69 ± 0.09 J/K/mol
molar heat capacity at constant pressure (76.35 K): 18.81 ± 0.09 J/K/mol
molar heat capacity at constant pressure (78.23 K): 19.67 ± 0.1 J/K/mol
molar heat capacity at constant pressure (78.83 K): 19.98 ± 0.1 J/K/mol
molar heat capacity at constant pressure (80 K): 20.58 ± 0.83 J/K/mol
molar heat capacity at constant pressure (80.13 K): 20.6 ± 0.1 J/K/mol
molar heat capacity at constant pressure (81.57 K): 21.31 ± 0.1 J/K/mol
molar heat capacity at constant pressure (82.03 K): 21.53 ± 0.1 J/K/mol
molar heat capacity at constant pressure (83.93 K): 22.47 ± 0.11 J/K/mol
molar heat capacity at constant pressure (84.33 K): 22.66 ± 0.11 J/K/mol
molar heat capacity at constant pressure (85 K): 23 ± 0.11 J/K/mol
molar heat capacity at constant pressure (85.84 K): 23.42 ± 0.11 J/K/mol
molar heat capacity at constant pressure (86.76 K): 23.89 ± 0.11 J/K/mol
molar heat capacity at constant pressure (87.1 K): 24.07 ± 0.12 J/K/mol
molar heat capacity at constant pressure (87.75 K): 24.35 ± 0.12 J/K/mol
molar heat capacity at constant pressure (89.66 K): 25.35 ± 0.12 J/K/mol
molar heat capacity at constant pressure (89.88 K): 25.48 ± 0.12 J/K/mol
molar heat capacity at constant pressure (90 K): 25.54 ± 0.19 J/K/mol
molar heat capacity at constant pressure (90.38 K): 25.72 ± 0.19 J/K/mol
molar heat capacity at constant pressure (91.58 K): 26.35 ± 0.19 J/K/mol
molar heat capacity at constant pressure (92.68 K): 26.93 ± 0.19 J/K/mol
molar heat capacity at constant pressure (93.5 K): 27.35 ± 0.19 J/K/mol
molar heat capacity at constant pressure (94.03 K): 27.61 ± 0.2 J/K/mol
molar heat capacity at constant pressure (95 K): 28.14 ± 0.2 J/K/mol
molar heat capacity at constant pressure (95.42 K): 28.36 ± 0.2 J/K/mol
molar heat capacity at constant pressure (95.49 K): 28.4 ± 0.2 J/K/mol
molar heat capacity at constant pressure (97.35 K): 29.35 ± 0.2 J/K/mol
molar heat capacity at constant pressure (97.7 K): 29.56 ± 0.2 J/K/mol
molar heat capacity at constant pressure (98.31 K): 29.91 ± 0.2 J/K/mol
molar heat capacity at constant pressure (99.28 K): 30.41 ± 0.2 J/K/mol
molar heat capacity at constant pressure (100 K): 30.76 ± 0.2 J/K/mol
molar heat capacity at constant pressure (101.14 K): 31.29 ± 0.21 J/K/mol
molar heat capacity at constant pressure (101.4 K): 31.39 ± 0.21 J/K/mol
molar heat capacity at constant pressure (105 K): 33.58 ± 0.21 J/K/mol
molar heat capacity at constant pressure (105.11 K): 33.64 ± 0.21 J/K/mol
molar heat capacity at constant pressure (108.84 K): 35.84 ± 0.22 J/K/mol
molar heat capacity at constant pressure (110 K): 36.47 ± 0.22 J/K/mol
molar heat capacity at constant pressure (112.59 K): 37.85 ± 0.23 J/K/mol
molar heat capacity at constant pressure (116.35 K): 39.89 ± 0.23 J/K/mol
molar heat capacity at constant pressure (118.19 K): 40.87 ± 0.24 J/K/mol
molar heat capacity at constant pressure (120 K): 41.53 ± 0.24 J/K/mol
molar heat capacity at constant pressure (120.13 K): 41.61 ± 0.24 J/K/mol
molar heat capacity at constant pressure (121.04 K): 42.24 ± 0.24 J/K/mol
molar heat capacity at constant pressure (123.91 K): 44.18 ± 0.25 J/K/mol and 44.16 ± 0.25 J/K/mol
molar heat capacity at constant pressure (126.79 K): 45.8 ± 0.25 J/K/mol
molar heat capacity at constant pressure (127.71 K): 46.35 ± 0.25 J/K/mol
molar heat capacity at constant pressure (129.67 K): 47.46 ± 0.26 J/K/mol
molar heat capacity at constant pressure (130 K): 47.65 ± 0.26 J/K/mol
molar heat capacity at constant pressure (131.52 K): 48.53 ± 0.26 J/K/mol
molar heat capacity at constant pressure (132.55 K): 49.08 ± 0.26 J/K/mol
molar heat capacity at constant pressure (135.33 K): 50.7 ± 0.27 J/K/mol
molar heat capacity at constant pressure (135.44 K): 50.72 ± 0.27 J/K/mol
molar heat capacity at constant pressure (138.34 K): 52.33 ± 0.28 J/K/mol
molar heat capacity at constant pressure (139.16 K): 52.77 ± 0.28 J/K/mol
molar heat capacity at constant pressure (140 K): 53.26 ± 0.28 J/K/mol
molar heat capacity at constant pressure (141.23 K): 53.98 ± 0.28 J/K/mol
molar heat capacity at constant pressure (142.99 K): 55.02 ± 0.28 J/K/mol
molar heat capacity at constant pressure (144.14 K): 55.61 ± 0.29 J/K/mol

Reference: the NIST ThermoML archive (doi:10.1016/j.jct.2009.01.014)
